Laboratory results reported in patent US8211890B2, “5-amino-2-(1-hydroxy-ethyl)-tetrahydropyran derivatives” (Actelion Pharmaceuticals, priority 2008, dated 2012).

Each molecule was assayed on S. aureus A798 (assay: Bacterial growth minimal inhibitory concentrations (microdilution, cation-adjusted Mueller-Hinton Broth)). Settings: Staphylococcus aureus, microdilution.
Type: cell-based
Experimental: Minimal inhibitory concentrations (MICs; mg/l) were determined in cation-adjusted Mueller-Hinton Broth by a microdilution method following the description given in “Methods for Dilution Antimicrobial Susceptibility Tests for Bacteria that Grow Aerobically”, Approved standard, 7th ed., Clinical and Laboratory Standards Institute (CLSI) Document M7-A7, Wayne, Pa., USA, 2006.
`COc1cnc2ccc(F)c(C[C@H](O)[C@@H]3CC[C@@H](NCc4cc5c(cn4)OCCO5)CO3)c2n1` [Example 12, (1S)-1-{(2S,5R)-5-[(2,3-dihydro-[1,4]dioxino[2,3-c]pyridin-7-ylmethyl)-amino]-tetrahydro-pyran-2-yl}-2-(6-fluoro-3-methoxy-quinoxalin-5-yl)-ethanol] was tested, and the MIC was at most 0.031 µg/mL. `[2H]C(N[C@@H]1CC[C@@H]([C@@H](O)Cc2c(F)cnc3ccc(OC)nc23)OC1)c1cc2c(nn1)OCCS2` (stereo partly drawn) [Example 23, (S)-1-{(2S,5R)-5-[(6,7-dihydro-8-oxa-5-thia-1,2-diaza-naphthalen-3-ylmethyl-d1)-amino]-tetrahydro-pyran-2-yl}-2-(3-fluoro-6-methoxy-[1,5]naphthyridin-4-yl)-ethanol] was tested, and the MIC was at most 0.031 µg/mL. For `[2H]C([2H])(N[C@@H]1CC[C@@H]([C@@H](O)Cc2c(F)cnc3ccc(OC)nc23)OC1)c1cc2c(cn1)OCCO2` [Example 24, (1S)-1-((2S,5R)-5-(((2,3-dihydro-[1,4]dioxino [2,3-c]pyridin-7-yl)methyl-d2)amino)tetrahydro-2H-pyran-2-yl)-2-(3-fluoro-6-methoxy-1,5-naphthyridin-4-yl)ethanol], the MIC was at most 0.031 µg/mL. `COc1ccc2ccc(F)c(C[C@H](O)[C@@H]3CC[C@@H](NCc4cc5c(cn4)OCCS5)CO3)c2n1` [Example 7, (1S)-1-{(2S,5R)-5-[(2,3-dihydro-4-oxa-1-thia-6-aza-naphthalen-7-ylmethyl)-amino]-tetrahydro-pyran-2-yl}-2-(7-fluoro-2-methoxy-quinolin-8-yl)-ethanol] showed an MIC of at most 0.031 µg/mL. Work on `COc1ccc2ccc(F)c(C[C@H](O)[C@@H]3CC[C@@H](NCc4cc5c(cn4)OCS5)CO3)c2n1` [Example 9, (1S)-2-(7-fluoro-2-methoxy-quinolin-8-yl)-1-{(2S,5R)-5-[(3-oxa-1-thia-5-aza-indan-6-ylmethyl)-amino]-tetrahydro-pyran-2-yl}-ethanol] yielded an MIC of at most 0.031 µg/mL. For `COc1ccc2ncc(F)c(C[C@H](O)[C@@H]3CC[C@@H](NCc4cc5c(cn4)OCCC5)CO3)c2n1` [Example 10, (1S)-1-{(2S,5R)-5-[(3,4-dihydro-2H-pyrano[2,3-c]pyridin-6-ylmethyl)-amino]-tetrahydro-pyran-2-yl}-2-(3-fluoro-6-methoxy-[1,5]naphthyridin-4-yl)-ethanol], the MIC was at most 0.031 µg/mL. `COc1ccc2ncc(F)c(C[C@H](O)[C@@H]3CC[C@@H](NCc4cc5c(cn4)OCS5)CO3)c2n1` [Example 8, (1S)-2-(3-fluoro-6-methoxy-[1,5]naphthyridin-4-yl)-1-{(2S,5R)-5-[(3-oxa-1-thia-5-aza-indan-6-ylmethyl)-amino]tetrahydro-pyran-2-yl}-ethanol] was tested, and the MIC was at most 0.031 µg/mL. In the case of `[2H]C(c1c(F)cnc2ccc(OC)nc12)[C@H](O)[C@@H]1CC[C@@H](NCc2cc3c(cn2)OCCS3)CO1` (stereo partly drawn) [Example 21, (S)-1-((2S,5R)-5-(((2,3-dihydro-[1,4]oxathiino[2,3-c]pyridin-7-yl)methyl)amino)tetrahydro-2H-pyran-2-yl)-2-(3-fluoro-6-methoxy-1,5-naphthyridin-4-yl)ethanol-2-d1], the MIC is reported as at most 0.031 µg/mL. With `COc1cnc2ccc(F)c(C[C@H](O)[C@@H]3CC[C@@H](NCc4cc5c(nn4)OCCS5)CO3)c2n1` [Example 15, (1S)-1-{(2S,5R)-5-[(6,7-dihydro-8-oxa-5-thia-1,2-diaza-naphthalen-3-ylmethyl)-amino]-tetrahydro-pyran-2-yl}-2-(6-fluoro-3-methoxy-quinoxalin-5-yl)-ethanol] the MIC was at most 0.031 µg/mL.

Same assay, conditions: microdilution
For “(S)-((1S,5R)-5-(((2,3-dihydro-[1,4]oxathiino[2,3-c]pyridin-7-yl)methyl)amino)tetrahydro-2H-pyran-2-yl)-2-(3-fluoro-6-methoxy-1,5-naphthyridin-4-yl)ethanol-1-d1 [Example 22]”, the “MIC for S. aureus A798” value was “≦0.031 mg/l”. With “(1S)-1-((2S,5R)-5-(((2,3-dihydro-[1,4]dioxino-2,2,3,3-d4-[2,3-c]pyridin-7-yl)methyl)amino)tetrahydro-2H-pyran-2-yl)-2-(3-fluoro-6-methoxy-1,5-naphthyridin-4-yl)ethanol [Example 17]” the “MIC for S. aureus A798” value was “≦0.031 mg/l”.
